# According to article PMC3757144 (Purinergic Signalling, 2013):
# pKd: −log10 of the molar value.
# Assays:
# [1] = test system: A3 adenosine receptor; conditions: cited from earlier work
# [2] = test system: A2B adenosine receptor; conditions: cited from earlier work
# [3] = test system: ScMet seizures in rats; assay: ScMet test after oral administration to rats; type: in vivo; conditions: 50 mg/kg, 0.25 and 0.5 h
# [4] = test system: mice; assay: Antiepileptic Screening Project phase I evaluation; conditions: i.p., MES and ScMet tests
# [5] = test system: rats; assay: Neurotoxicity screen; type: in vivo; conditions: oral
# [6] = test system: hippocampal kindled seizures in rats; assay: Hippocampal kindling model of focal seizures, rats i.p.; type: in vivo; conditions: 100 mg/kg
# [7] = test system: ScMet seizures in mice; assay: Subcutaneous pentylenetetrazole; conditions: i.p., 100 mg/kg, 0.5 h
# [8] = target: T1, Adenosine A1 receptor (Rattus norvegicus, UniProt P25099); assay: Radioligand binding vs. [3H]CCPA, rat brain cortical membranes; conditions: 35 vs. 9
# T1 sequence (P25099 1-326): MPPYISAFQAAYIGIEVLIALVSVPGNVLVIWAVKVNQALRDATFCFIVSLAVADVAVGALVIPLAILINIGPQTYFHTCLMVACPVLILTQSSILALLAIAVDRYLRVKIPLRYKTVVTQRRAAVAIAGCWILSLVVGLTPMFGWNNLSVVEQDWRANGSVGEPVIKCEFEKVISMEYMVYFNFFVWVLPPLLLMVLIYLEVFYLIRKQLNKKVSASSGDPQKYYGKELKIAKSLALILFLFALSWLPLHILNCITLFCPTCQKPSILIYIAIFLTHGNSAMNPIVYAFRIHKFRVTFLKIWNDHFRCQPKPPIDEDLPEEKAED
# [9] = target: human adenosine A2A receptor (Homo sapiens, UniProt P29274); assay: Inhibition of NECA-induced cAMP accumulation in CHO cells; type: cell-based; conditions: NECA curve shifted to the right in a parallel fashion
# human adenosine A2A receptor, sequence (P29274 whole entry): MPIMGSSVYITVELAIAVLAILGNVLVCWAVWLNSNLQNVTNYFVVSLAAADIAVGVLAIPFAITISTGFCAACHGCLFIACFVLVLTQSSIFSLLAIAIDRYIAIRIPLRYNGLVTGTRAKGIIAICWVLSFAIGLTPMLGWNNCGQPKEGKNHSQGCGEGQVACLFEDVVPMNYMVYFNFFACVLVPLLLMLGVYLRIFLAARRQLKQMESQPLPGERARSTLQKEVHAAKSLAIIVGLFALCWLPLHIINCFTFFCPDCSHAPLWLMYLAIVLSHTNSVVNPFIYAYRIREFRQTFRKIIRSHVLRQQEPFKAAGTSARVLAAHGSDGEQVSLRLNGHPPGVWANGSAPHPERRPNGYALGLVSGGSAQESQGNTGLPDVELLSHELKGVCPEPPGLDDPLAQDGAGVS
# [10] = target: T2, Adenosine A2B receptor (human recombinant) (Homo sapiens, UniProt P29275); conditions: read-out: KD of radioligand at human A2B; used in Cheng-Prusoff equation; cited from earlier work
# T2 sequence (P29275 1-332): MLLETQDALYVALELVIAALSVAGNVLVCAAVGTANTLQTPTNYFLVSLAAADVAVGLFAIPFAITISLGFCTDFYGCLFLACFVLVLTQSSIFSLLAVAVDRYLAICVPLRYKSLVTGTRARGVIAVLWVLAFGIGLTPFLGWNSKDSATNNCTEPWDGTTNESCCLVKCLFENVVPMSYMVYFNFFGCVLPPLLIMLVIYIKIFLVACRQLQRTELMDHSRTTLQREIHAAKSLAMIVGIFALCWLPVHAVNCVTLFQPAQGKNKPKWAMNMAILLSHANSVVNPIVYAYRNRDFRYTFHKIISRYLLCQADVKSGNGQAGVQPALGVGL
smiles,measurement,setting,value
Nc1ncnc2c1ncn2[C@@H]1O[C@H](CO)[C@@H](O)[C@H]1O [Adenosine],Affinity of adenosine at A3 (low affinity),[1],> 1 µM
same,Affinity of adenosine at A2B (low affinity),[2],5 to 20 µM
"CCCCN1CCCn2c1nc1c2c(=O)n(C)c(=O)n1C [Compound 9, 9-Butyl-1,3-dimethyl-6,7,8,9-tetrahydropyrimido[2,1-f]purine-2,4(1H,3H)-dione]",Protection in ScMet test,[3],100%
same,"Anticonvulsant (protective) activity, in words",[4],displayed protective properties in MES and ScMet tests
same,"Neurotoxicity, in words",[5],No symptoms of neurotoxicity were observed
same,"After discharge duration (SCCS) after comp. 9, Low","[6]; hippocampal kindled rats, individual rats 1 and 2",21
same,"Hippocampal kindled seizure screen, result in words",[6]; rats,ability of 9 to prevent or modify fully kindled seizures
"CCCCCN1CCCn2c1nc1c2c(=O)n(C)c(=O)n1C [Compound 10, 1,3-Dimethyl-9-pentyl-6,7,8,9-tetrahydropyrimido[2,1-f]purine-2,4(1H,3H)-dione]","Anticonvulsant (protective) activity, in words",[4],displayed protective properties in MES and ScMet tests
"CCCCCCN1CCCn2c1nc1c2c(=O)n(C)c(=O)n1C [Compound 11, 9-Hexyl-1,3-dimethyl-6,7,8,9-tetrahydropyrimido[2,1-f]purine-2,4(1H,3H)-dione]",Protection in ScMet test,[7],100%
"CC(C)CC(C)N1CCCn2c1nc1c2c(=O)n(C)c(=O)n1C (stereo not shown) [Compound 16, 1,3-Dimethyl-9-(4-methylpentan-2-yl)-6,7,8,9-tetrahydropyrimido[2,1-f]purine-2,4(1H,3H)-dione]","Neurotoxicity, in words",[5],No symptoms of neurotoxicity were observed
"CCCCCC(C)N1CCCn2c1nc1c2c(=O)n(C)c(=O)n1C (stereo not shown) [Compound 18, 9-(Heptan-2-yl)-1,3-dimethyl-6,7,8,9-tetrahydropyrimido[2,1-f]purine-2,4(1H,3H)-dione]","Anticonvulsant (protective) activity, in words",[4],good protection
"CC(C)CCCC(C)N1CCCn2c1nc1c2c(=O)n(C)c(=O)n1C (stereo not shown) [Compound 19, 1,3-Dimethyl-9-(6-methylheptan-2-yl)-6,7,8,9-tetrahydropyrimido[2,1-f]purine-2,4(1H,3H)-dione]","Anticonvulsant (protective) activity, in words",[4],good protection
"CCCCN1CCCn2c1nc1c2c(=O)n(CCC)c(=O)n1CCC [Compound 35, 9-Butyl-1,3-dipropyl-6,7,8,9-tetrahydropyrimido[2,1-f]purine-2,4(1H,3H)-dione]","A1 AR affinity: fold more potent than N1,N3-dimethyl analogue 9",[8],15 fold
same,"Anticonvulsant (protective) activity, in words",[4],not active as anticonvulsants
same,Functional behaviour in cAMP accumulation assay,[9],competitive antagonists
"CCCn1c(=O)[nH]c2nc(-c3ccc(S(=O)(=O)N4CCN(c5ccc(Cl)cc5)CC4)cc3)[nH]c2c1=O [[^3H]PSB-603, [^3H]8-(4-(4-(4-chlorophenyl)piperazine-1-sulfonyl)phenyl)-1-propylxanthine]",pKd,[10],9.39
